Measurements from patent US20100234402A1, “METHODS AND COMPOSITIONS FOR TREATING SPINAL MUSCULAR ATROPHY” (priority 2007, published 2010).

What was measured:
SMN complex [1] = target: T1, SMN complex (Homo sapiens, UniProt Q16637); assay: Magnetic beads snRNP assembly assay in vitro with cell extracts; format: biochemical; details: for IC50: extracts of untreated cells, read-out: IC50, inhibition of the activity of the SMN complex in vitro
T1 construct: HeLa cell extracts (containing the SMN complex and all the components required for Sm core assembly); endogenous in cells; host or cells: HeLa: S3 cytoplasmic or total extracts for in vitro reactions, HeLa PV total extracts for compound-treated cells
Procedure: (§1) Magnetic beads snRNP assembly assay was carried out in the presence of increasing amounts of H2O2. IC50 was calculated from the dose-response curve. The error bars represent SDs from 3 independent measurements. (B) Effect of menadione on the activity of the SMN complex in vitro. The same experimental procedure was carried out as in (A), except that menadione was used instead. (C) Dose-dependent effect of menadione on the activity of the SMN complex in cells. HeLa cells were treated with menadione at the indicated concentrations or with DMSO control for 1 hour. The activity of the SMN complex in extracts from various treated cells was measured in comparison to DMSO control cell extract (100% activity) by magnetic beads snRNP assembly assay. The error bars represent SDs from 3 independent measurements. (D) Extracts from (C) mixed with sample buffer without (−DTT) or with (+DTT) reducing agent were resolved by SDS-PAGE and analyzed by Western blot of the entire membrane with anti-SMN antibody 62E7. The molecular mass markers in 41 kDa are indicated on the left. “redSMN” indicates monomer SMN migrating at normal molecular mass and “oxSMN” indicates disulfide-crosslinked SMN upon oxidation. (E) β-lapachone and menadione generate ROS in live cells. HeLa cells were incubated with ROS indicator dye H2DCFDA (10 μM) or without dye as a control for 30 minutes, and then treated with the compounds at the indicated concentrations or DMSO as a control. Fluorescence images were acquired 30 minutes after the treatment.
(A) Cell extracts treated with 20 μM β-lapachone, or 20 μM β-lapachone together with 20 μM DTT, or DMSO control were analyzed by non-reducing Western blot. The relative levels of monomer SMN (“redSMN”) were calculated as the percentage of that in DMSO control and shown by the blue bar. Assembly activities of the SMN complex were measured by magnetic beads snRNP assembly assay using the same set of treated extracts and shown by the red bar. The error bar represents SDs from 3 independent experiments. (B) The sulfhydryl modifying reagent iodoacetamide inhibits the activity of the SMN complex. In vitro assembly assays were performed in the presence of various concentrations of iodoacetamide. The activity of the SMN complex in the absence of iodoacetamide was set as 100% activity, and the relative activity at each iodoacetamide concentration was calculated in comparison and graphed. The error bars represent SDs from triplicate samples.
For quantitative in vitro assembly assays on magnetic beads, cytoplasmic extracts were prepared and used for assembly on biotin-labeled snRNAs using the standard reconstitution conditions in 96-well plates. Following the reactions, Y12 antibodies immobilized onto the magnetizable Dynabeads Protein A (Dynal Biotech ASA, Oslo, Norway) in 100 μl of RSB-500 buffer ([…]) containing 2 mg/ml heparin, 0.1% NP-40, and 0.2 U/.μl RNasin Plus RNase inhibitor (Promega, Madison, Wis.) were added to each well. Immunoprecipitations in the 96-well plates were carried out with gentle mixing at 750 rpm in a Thermomixer (Eppendorf, Germany) at 30° C. for 1 hour. The plates were subsequently transferred to a Kingfisher 96 magnetic particle processor (Thermo Labsystems, Vantaa, Finland) for automatic washing of the Dynabeads in each well with wash buffer (RSB-500, 0.1% NP-40) 5 times. After the last wash, beads bound to Y12 immunoprecipitated snRNPs were then resuspended in 120 μl of wash buffer containing 0.08 μg/ml horseradish peroxidase (HRP)-conjugated NeutrAvidin.TM. (Pierce, Rockford, Ill.). Following incubation at 30° C. for 1 hour with gentle mixing, the beads in each well were again washed five times with the Kingfisher 96 magnetic particle processor, and finally resuspended in 150 μl of SuperSignal ELISA Femto Substrate Working Solution (Pierce). […]

SMN complex [2] = target: T1, SMN complex; assay: Magnetic beads snRNP assembly assay on extracts from compound-treated HeLa cells; format: cell-based
Procedure: (§2) (B) Concentration-dependent inhibition of the activity of the SMN complex by b-lapachone in cells. HeLa cells were treated with various concentrations of β-lapachone or with DMSO (control) for 1 hour. The activity of the SMN complex in extracts from treated cells was measured using magnetic beads snRNP assembly assay and compared to that of DMSO-treated control cells (100% activity). IC50 was calculated from the dose-response graph. The error bars represent SDs from 3 independent measurements. […] Assembly reactions were performed using either cell extracts or purified native […] snRNP proteins lacking the SMN complex (Sm proteins). Both samples were adjusted to contain a similar amount of Sm proteins. Magnetic beads snRNP assembly assay were carried out with U4 or control U4DSm snRNA in the presence of either 20 or 100 μM β-lapachone or DMSO control. Sm core assembly on U4 snRNA in the presence of DMSO was considered 100% activity. The error bars represent SDs from 3 independent measurements.
In vitro transcription and labeling of RNAs was carried out using MEGAshortscript T7 transcription kit (Ambion) with the modification that 0.65 μM biotin-16-UTP (Roche) and 2.6 μM UTP were used in the reactions to produce biotinlabeled RNAs (Wan et al., 2005). Cell culture, drug treatment and preparation of cell extracts HeLa S3 cell pellets were purchased from National Cell Culture Center. Cytoplasmic extracts competent for snRNP assembly were prepared as described (Pellizzoni et al., 2002). Total cell extracts were made by resuspending cell pellets in reconstitution buffer ([…], 0.2 mM EDTA, 5% glycerol) containing 50 µg/ml digitonin (Calbiochem) and 1× Complete EDTA-free Protease Inhibitor Cocktail (Roche), followed by sonication. Nonidet P-40 (NP-40) was added to a final concentration of 0.01%, followed by centrifugation at 10,000 rpm for 15 minutes at 4° C. Glycerol was then added to the supernatant at a final concentration of 5%. For various drug treatments, two 10 cm plates of HeLa PV cells were treated with each drug at the indicated concentrations and times. Cells were harvested (˜90% confluent) and total cell extracts prepared using the aforementioned procedures. Protein concentrations of various extracts were determined using the Bradford protein assay (BioRad). All of the extracts for the same experiment were adjusted to the same final protein concentration
For quantitative in vitro assembly assays on magnetic beads, cytoplasmic extracts were prepared and used for assembly on biotin-labeled snRNAs using the standard reconstitution conditions in 96-well plates. […] The plates were transferred to a Wallac Victor2 multi-label plate reader (Perkin-Elmer, Wellesley, Mass.) for luminescence measurements at 495 nm. […]

ROS in HeLa cells = assay: ROS detection in live HeLa cells with H2DCFDA dye; format: cell-based, human; details: for ROS generation in live cells (H2DCFDA fluorescence): 10 μM H2DCFDA, images 30 minutes after treatment
Procedure: as §1
Additional direct evidence for the ROS-generating activity of the compounds in live cells was obtained by staining cells with 2′,7′-dichlorodihydrofluorescein diacetate (H2DCFDA), a nonfluorescent dye that becomes fluorescent upon exposure to ROS. […] A significant level of ROS was apparent at 0.5 μM β-lapachone and increased proportionally with increasing b-lapachone concentrations.

Sm proteins = test system: T2, Sm proteins; assay: Sm core assembly from purified native snRNP proteins lacking the SMN complex; format: biochemical, human; details: U4 snRNA, 20 or 100 μM
T2 construct: Native, RNA-free total snRNP proteins (TPs) were prepared from HeLa S3 cells; endogenous in cells; host or cells: HeLa S3 cells (pellets from National Cell Culture Center); proteins purified in house by the method of Sumpter et al., 1992
Procedure: as §2
Native, RNA-free total snRNP proteins (TPs) were prepared from HeLa S3 cells (National Cell Culture Center) as described previously (Sumpter et al., 1992). […] The other half of the samples were immunoprecipitated with anti-Sm monoclonal antibody (Y12), and the immunoprecipitated RNAs were isolated and analyzed by electrophoresis on […] urea/8% polyacrylamide gels. […]

[3] = test system: transfected luciferase reporter; assay: Transcription and translation of a transfected luciferase reporter in treated cells; format: cell-based
SMN protein = assay: Quantitative non-reducing Western blot of SMN in extracts of treated HeLa cells; format: cell-based, human; details: 5 μM for 3 hours, prepared without DTT
Procedure: (B) HeLa total cell extracts prepared from cells treated for 3 hours with 5 μM β-lapachone or DMSO control were resolved by SDS-PAGE and analyzed by quantitative Western blotting, using JBP1 and Magoh as loading controls. The extracts were prepared and mixed with sample buffer without reducing agent. The membrane was cut into strips for the probing of each protein at the corresponding molecular mass.
For quantitative Western blot, cell extracts containing 20 g of total proteins were mixed with NuPAGE LDS sample buffer (Invitrogen) with or without reducing agent (Invitrogen), boiled for 5 minutes, and then separated on NuPAGE 4-12% Bis-Tris gels (Invitrogen) and transferred to nitrocellulose membranes. […] Mouse monoclonal antibodies, anti-SMN (62E7), anti-Gemin3 (12H12), anti-Gemin4 (17D10), anti-Gemin5 (10G11), anti-JBP1 (6G8), anti-Magoh (18G12) and anti-Sm (Y12), were used as described previously (Battle et al., 2006b; Lerner et al., 1981; Wan et al., 2005). The IRDye800 anti-mouse IgG secondary antibody (Rockland) was used at 1:5000.
To test this, extracts from b-lapachone-treated cells (at 5 μM for 3 hours) or DMSO-treated control cells were prepared in gel electrophoresis sample buffer without the reducing agent dithiothreitol (DTT) to preserve potential disulfides, resolved by SDS-PAGE, and analyzed by quantitative Western blots. […]

SMN = assay: Indirect immunofluorescence of SMN (2B1) and snRNPs (Y12) in HeLa PV cells; format: cell-based, human; details: 5 μM for 3 hours vs DMSO control

T1 sequence (Q16637 2-294 limits assumed): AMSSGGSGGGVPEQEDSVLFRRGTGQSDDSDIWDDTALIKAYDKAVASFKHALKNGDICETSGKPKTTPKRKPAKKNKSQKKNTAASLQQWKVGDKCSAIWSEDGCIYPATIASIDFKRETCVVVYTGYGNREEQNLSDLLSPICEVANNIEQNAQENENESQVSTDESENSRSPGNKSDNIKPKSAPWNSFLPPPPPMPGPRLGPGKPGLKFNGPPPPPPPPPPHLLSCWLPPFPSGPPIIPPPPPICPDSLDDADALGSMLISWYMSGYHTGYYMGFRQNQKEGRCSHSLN
T1 sequence (O14893 whole entry partner): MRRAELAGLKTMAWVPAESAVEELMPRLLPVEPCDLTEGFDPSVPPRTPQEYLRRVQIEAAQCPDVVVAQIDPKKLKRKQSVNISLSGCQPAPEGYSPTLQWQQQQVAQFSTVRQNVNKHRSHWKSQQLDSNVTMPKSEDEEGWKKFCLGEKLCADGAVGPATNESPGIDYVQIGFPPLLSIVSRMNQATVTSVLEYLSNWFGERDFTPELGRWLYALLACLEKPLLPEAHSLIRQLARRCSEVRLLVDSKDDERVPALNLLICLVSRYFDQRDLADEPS

O[C@H](CS)[C@H](O)CS (racemic) [DTT, dithiothreitol]
prevention of the inhibitory effect of b-lapachone on SMN complex activity (SMN complex [1]; 20 μM b-lapachone with 20 μM DTT): completely neutralized

O=C1C(=O)c2ccccc2-c2ccccc21 [9,10-phenanthrenequinone]
inhibition of the SMN complex / assembly in cell extracts (in words) (SMN complex [1]; in vitro): strongly inhibit

OO [H2O2, hydrogen peroxide]
IC50, inhibition of the activity of the SMN complex in vitro (SMN complex [1]; in vitro, value in words): low millimolar range

CC(=O)N[C@@H](CS)C(=O)O [N-acetyl-L-cysteine]
prevention of the inhibition of b-lapachone, menadione and H2O2 (SMN complex [1]; in vitro assembly reactions): completely prevented

NC(=O)CI [iodoacetamide]
inhibition of the SMN complex / assembly in cell extracts (in words) (SMN complex [1]; in vitro): inhibits

CC1=CC(=O)c2ccccc2C1=O [menadione, 2-methyl-1,4-napthoquinone]
inhibition of SMN complex activity in cells (SMN complex [2]; HeLa cells treated for 1 hour): dose-dependent inhibition
IC50 (SMN complex [1]): 25 µM
ROS generation in live cells (H2DCFDA fluorescence) (ROS in HeLa cells): Dose-dependent fluorescence

O=C1C(=O)C(Cl)=C(Cl)C(Cl)=C1Cl [tetrachloro-1,2-benzoquinone]
inhibition of the SMN complex / assembly in cell extracts (in words) (SMN complex [1]; in vitro): strongly inhibit

CC1(C)CCC2=C(O1)C(=O)c1ccccc1C2=O [α-lapachone]
inhibition of the SMN complex / assembly in cell extracts (in words) (SMN complex [1]; in vitro): does not inhibit

CC1(C)CCC2=C(O1)c1ccccc1C(=O)C2=O [β-lapachone, 3,4-dihydro-2,2-dimethyl-2H-naphthol[1,2-b]pyran-5,6-dione]
IC50 (SMN complex [2]; HeLa cells treated for 1 hour, read-out: IC50, inhibition of the activity of the SMN complex in treated cells): 0.45 µM
inhibition of snRNP assembly activity (SMN complex [2]; extracts from cells treated for 6 hours with subtoxic concentration): about 90%
inhibition of snRNP assembly (SMN complex [2]; within 30 minutes of treatment): > 80%
IC50 (SMN complex [1]): ~30 µM
inhibition of the SMN complex / assembly in cell extracts (in words) (SMN complex [1]; in vitro): inhibited assembly in the cell extracts
effect on Sm core formation from the purified snRNP proteins (Sm proteins): no effect
inhibition of transcription and translation of a transfected luciferase reporter [3]: did not significantly inhibit
decrease of intensity of the SMN band (monomer) compared to DMSO controls (SMN protein): ~60%
SMN signal intensity or localization (SMN): no detectable difference
ROS generation in live cells (H2DCFDA fluorescence) (ROS in HeLa cells): Dose-dependent fluorescence
concentration at which a significant level of ROS was apparent (ROS in HeLa cells; HeLa cells, H2DCFDA): 0.5 µM
